Results from patent publication US20040102525A1, “Compositions and methods of treating neurological disease and providing neuroprotection” (priority 2002, published 2004).

Key:
NMDA receptors = details: perfused, ventilated rat lungs; cited from earlier work
neurons = details: cited from earlier work
[1] = rat, in vivo; cited from earlier work
[2] = injected directly into the VNC prior to UVD; cited from earlier work
[3] = following nerve injury; cited from earlier work
osteoblasts = details: cited from earlier work
[4] = cited from earlier work
[5] = multiple sclerosis patients; cited from earlier work
[6] = acute, sub-anesthetic doses, normal subjects; cited from earlier work
[7] = healthy subjects; cited from earlier work
[8] = Tinnitus patient treated with chronic oral memantine; assay type: in vivo, human; details: first patient in the USA, category I tinnitus, chronic oral 10 mg BID
Excerpt: The efficacy of current therapy for tinnitus is controversial but includes devices that mask tinnitus and TRT (tinnitus retraining therapy) which is a technique utilizing white noise for a period of time to assist the patient to habituate to their tinnitus. […] We postulate that the administration of memantine would attenuate the neurotoxicity mechanisms of cochlear disorders and tinnitus, and also attenuate any abnormal neuronal plasticity in the temporal-parietal association cortex resulting in clinical efficacy for the treatment of tinnitus.

NMDA receptor = details: cited from earlier work
NR2C and NR2D subunits = details: cited from earlier work
NR1A/2B = NR1A/2B (Homo sapiens, UniProt Q05586+Q13224); details: cited from earlier work
[9] = target: NR2A of the NMDA receptor (Homo sapiens, UniProt Q05586+Q12879); details: cited from earlier work
[10] = test system: L- and N type voltage-activated calcium channels, Na+ channels; details: cited from earlier work
GABA or AMPA receptors = details: cited from earlier work
[11] = test system: D2, AMPA, kainate, alpha 1, alpha 2, and 5-HT re-uptake; details: alpha 1, alpha 2, 5-HT re-uptake; cited from earlier work
hippocampal slices = details: cited from earlier work
neuronal ganglion cell = details: administered 4 hours after NMDA neurotoxicity; cited from earlier work
cortical cell cultures = details: cited from earlier work
[12] = cited from earlier work; remark: listed apart in the source
[13] = rat, in vivo; cited from earlier work; remark: listed apart in the source
[14] = lesions of the entorhinal cortex; cited from earlier work
[15] = up to 2 hours after induction of hypoxia/ischemia, immature and adult rats; cited from earlier work
[16] = EAE (Wallstrom, 1996); cited from earlier work
[17] = pre- or posttreatment, 20 mg/kg IP (von Euler, 1997); cited from earlier work
[18] = rats with experimental acute liver failure; cited from earlier work
[19] = test system: tumor cells including lung, rhabdomyosarcoma, medulloblastoma, and thyroid adenocarcinoma; details: cited from earlier work
[20] = test system: glutamate secreting tumors; details: 25 mg/kg IP; cited from earlier work
BDNF mRNA = details: rat limbic system; cited from earlier work
[21] = test system: inner hair cell afferents; details: animal models; cited from earlier work
[22] = one patient; metabolic deficits by PET not totally reversed; cited from earlier work
[23] = moderate and severe Alzheimer's disease; cited from earlier work
[24] = in vivo; cited from earlier work
[25] = animal studies; cited from earlier work
[26] = cited from earlier work; remark: listed apart in the source
[27] = rat, brain microdialysis with in vivo recovery; cited from earlier work
[28] = cited from earlier work; remark: listed apart in the source
[29] = animals studies; cited from earlier work
[30] = parallel treatment with memantine and 3-NP; cited from earlier work
[31] = in vivo; cited from earlier work; remark: listed apart in the source
[32] = in vivo; cited from earlier work; remark: listed apart in the source

Chain of NR1A/2B (Q13224 27-1484, other chains not shown): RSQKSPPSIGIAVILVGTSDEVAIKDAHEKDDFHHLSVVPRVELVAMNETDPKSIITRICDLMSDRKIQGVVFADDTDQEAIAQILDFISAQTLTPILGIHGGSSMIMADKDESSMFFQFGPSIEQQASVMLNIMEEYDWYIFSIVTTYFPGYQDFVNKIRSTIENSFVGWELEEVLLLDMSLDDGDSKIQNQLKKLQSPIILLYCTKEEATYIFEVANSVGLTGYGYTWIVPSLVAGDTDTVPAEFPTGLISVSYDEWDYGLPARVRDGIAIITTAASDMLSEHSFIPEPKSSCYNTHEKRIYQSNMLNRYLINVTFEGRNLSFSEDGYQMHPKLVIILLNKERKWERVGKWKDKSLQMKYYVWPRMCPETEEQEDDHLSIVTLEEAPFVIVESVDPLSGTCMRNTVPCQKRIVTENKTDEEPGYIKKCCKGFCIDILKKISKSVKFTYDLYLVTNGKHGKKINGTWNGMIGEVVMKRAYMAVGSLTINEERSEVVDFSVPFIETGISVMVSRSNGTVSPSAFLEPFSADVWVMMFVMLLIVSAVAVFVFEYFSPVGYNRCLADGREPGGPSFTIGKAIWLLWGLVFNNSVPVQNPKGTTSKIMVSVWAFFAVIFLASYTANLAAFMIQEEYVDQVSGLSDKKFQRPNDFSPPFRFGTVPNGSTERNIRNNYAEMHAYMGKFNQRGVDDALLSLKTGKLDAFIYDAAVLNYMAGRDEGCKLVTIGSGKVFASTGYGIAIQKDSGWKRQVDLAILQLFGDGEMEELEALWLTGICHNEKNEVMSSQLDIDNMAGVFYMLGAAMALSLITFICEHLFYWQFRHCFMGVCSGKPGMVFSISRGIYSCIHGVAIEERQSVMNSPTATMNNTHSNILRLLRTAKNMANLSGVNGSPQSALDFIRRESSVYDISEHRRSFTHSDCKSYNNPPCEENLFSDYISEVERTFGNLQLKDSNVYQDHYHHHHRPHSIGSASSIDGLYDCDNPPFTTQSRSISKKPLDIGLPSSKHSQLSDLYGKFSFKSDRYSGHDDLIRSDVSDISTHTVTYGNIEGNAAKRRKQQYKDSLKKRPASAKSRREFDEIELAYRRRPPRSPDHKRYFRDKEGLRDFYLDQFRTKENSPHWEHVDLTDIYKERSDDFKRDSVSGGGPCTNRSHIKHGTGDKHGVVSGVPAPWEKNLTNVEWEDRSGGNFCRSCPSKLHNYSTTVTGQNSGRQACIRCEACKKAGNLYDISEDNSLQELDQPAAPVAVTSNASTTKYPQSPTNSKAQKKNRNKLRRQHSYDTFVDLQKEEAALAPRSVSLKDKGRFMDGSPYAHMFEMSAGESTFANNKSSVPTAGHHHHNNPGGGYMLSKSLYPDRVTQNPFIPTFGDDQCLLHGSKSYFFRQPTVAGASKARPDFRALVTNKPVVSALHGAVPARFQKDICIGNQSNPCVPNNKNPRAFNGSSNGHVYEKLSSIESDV
Chain of NR2A of the NMDA receptor (Q12879 23-1464, other chains not shown): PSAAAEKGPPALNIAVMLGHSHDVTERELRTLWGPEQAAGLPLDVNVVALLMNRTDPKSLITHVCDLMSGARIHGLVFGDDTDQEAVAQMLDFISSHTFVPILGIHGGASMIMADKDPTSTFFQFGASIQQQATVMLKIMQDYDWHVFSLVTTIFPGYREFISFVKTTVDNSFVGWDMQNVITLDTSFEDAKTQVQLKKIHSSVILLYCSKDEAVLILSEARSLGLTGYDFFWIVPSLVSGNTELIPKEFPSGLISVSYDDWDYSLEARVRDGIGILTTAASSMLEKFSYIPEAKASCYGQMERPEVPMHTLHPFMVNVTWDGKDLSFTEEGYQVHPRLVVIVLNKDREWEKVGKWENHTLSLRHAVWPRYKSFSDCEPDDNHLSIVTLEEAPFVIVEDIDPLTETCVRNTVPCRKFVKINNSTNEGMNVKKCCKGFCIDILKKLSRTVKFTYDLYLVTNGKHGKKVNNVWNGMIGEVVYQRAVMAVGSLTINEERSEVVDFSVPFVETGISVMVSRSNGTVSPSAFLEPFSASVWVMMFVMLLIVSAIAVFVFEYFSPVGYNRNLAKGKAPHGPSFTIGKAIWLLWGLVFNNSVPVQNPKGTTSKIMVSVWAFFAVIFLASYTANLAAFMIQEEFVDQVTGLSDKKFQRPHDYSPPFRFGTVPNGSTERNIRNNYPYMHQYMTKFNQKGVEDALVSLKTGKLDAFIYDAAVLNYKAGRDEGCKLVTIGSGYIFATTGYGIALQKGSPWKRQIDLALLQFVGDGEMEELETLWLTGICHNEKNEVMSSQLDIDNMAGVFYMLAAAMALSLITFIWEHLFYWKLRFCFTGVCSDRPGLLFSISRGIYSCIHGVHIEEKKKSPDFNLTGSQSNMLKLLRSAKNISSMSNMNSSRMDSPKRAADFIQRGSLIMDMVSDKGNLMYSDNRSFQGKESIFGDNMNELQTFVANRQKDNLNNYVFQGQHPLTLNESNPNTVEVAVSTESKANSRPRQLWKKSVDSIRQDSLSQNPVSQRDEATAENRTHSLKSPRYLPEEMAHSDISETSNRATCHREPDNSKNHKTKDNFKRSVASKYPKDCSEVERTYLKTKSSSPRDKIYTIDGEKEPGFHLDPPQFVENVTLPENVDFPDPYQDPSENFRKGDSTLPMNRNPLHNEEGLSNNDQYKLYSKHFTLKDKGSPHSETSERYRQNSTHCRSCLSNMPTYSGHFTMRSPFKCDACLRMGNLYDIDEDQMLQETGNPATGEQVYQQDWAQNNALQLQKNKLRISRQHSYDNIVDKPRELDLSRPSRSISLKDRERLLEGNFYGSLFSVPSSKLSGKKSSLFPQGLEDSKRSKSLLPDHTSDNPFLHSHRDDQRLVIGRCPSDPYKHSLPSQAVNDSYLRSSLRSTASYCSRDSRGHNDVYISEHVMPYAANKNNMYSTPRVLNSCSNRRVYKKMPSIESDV

For `C[C@]12N[C@H](Cc3ccccc31)c1ccccc12` [MK-801], the “pulmonary injury by NMDA receptor activation” value (NMDA receptors) is listed as “prevented”, the “neuronal loss by neurotoxic concentrations of glutamate” value (neurons) is listed as “attenuated the neuronal loss” and the “cortical spreading after infarction” value [1] is listed as “able to inhibit cortical spreading”. For the same molecule, the hyperexcitability after infarction [1] was “unable to reverse the hyperexcitability”, the “severity of the vestibular syndrome (SON, YHT)” value [2] was “reduced the severity of the vestibular syndrome” and the motorneurone death [3] was “reduced motorneurone death”. For the same molecule, the “inward currents in response to NMDA agonist stimulation” value (osteoblasts) was “significant decrease in inward currents”, the “increased airway perfusion pressure produced by NMDA” value ([4]; NMDA) was “abolished” and the “acute elevation in airway perfusion pressure by capsaicin” value ([4]; capsaicin) was “attenuated in both magnitude and duration”.

In the case of `NCC1(CC(=O)O)CCCCC1` [gabapentin], the “treatment of APN” value [5] is given as “efficacy”.

In the case of `CNC1(c2ccccc2Cl)CCCCC1=O` (stereo not shown) [ketamine], the memory [6] is given as “delayed memory recall and decreases in verbal and nonverbal memory” and the “smooth pursuit of eye movements” value [7] is given as “deficits in smooth pursuit of eye movements”.

In the case of `CC12CC3CC(C)(C1)CC(N)(C3)C2.Cl` [memantine, 1-amino-3,5-dimethyl-adamantane hydrochloride], the response of tinnitus [8] is listed as “successfully treated”, the “NMDA channels left unblocked” value (NMDA receptor) is listed as 20% and the “levels at which action is specific for antagonism of the NMDA receptor” value (NMDA receptor; does not affect other ligand-gated or voltage-gated channels) is listed as 1 to 10 µM. The “block of NR2C and NR2D subunits” value (NR2C and NR2D subunits) was “preferentially blocks”, the “potency at NR1A/2B” value (NR1A/2B) was “intermediate potency” and the “effects at NR2A” value [9] was “weak effects”. The “antagonism at L- and N type voltage-activated calcium channels, Na+ channels” value [10] was “weak antagonist”, the “effect on GABA or AMPA receptors” value (GABA or AMPA receptors) was “no effect” and the “concentrations at which memantine interacts with multiple receptors” value [11] was “greater than 100 μM”. The “effect on LTP in hippocampal slices” value (hippocampal slices; 6-10 μM) was “do not attenuate LTP”, the “increase of the CA1 pyramidal cell spike” value (hippocampal slices; in vitro) was 100% and the “synaptic functioning after removal of Mg++” value (hippocampal slices; relevant human brain concentrations (1-μM)) was “normalized synaptic functioning”. For the same molecule, the “neuronal ganglion cell death” value (neuronal ganglion cell) was “prevention of neuronal ganglion cell death”, the “apoptosis induced by gp120” value (cortical cell cultures) was “prevention of apoptosis” and the “hippocampal damage, convulsions and cell death induced by ICV QUIN” value ([12]; in vivo) was “prevents hippocampal damage, convulsions and cell death”. The “memory deficits by chronic ICV infusion of QUIN” value ([12]; simultaneous infusion of memantine) was “blocked”, the “lesions of the NBM produced by mitochondrial toxins (3-NP)” value [13] was “inhibited” and the “striatal lesions by malonate” value [13] was “significantly attenuated”. For the same molecule, the “time to normalized learning” value [14] was no more than 8 days, the “time to reversal of learning impairment” value [14] was no more than 3 days and the infarct size [15] was “significantly reduce infarct size”. For the same molecule, the “effect on CNS inflammation, IFN-γ, lymphocytic proliferation, systemic immunity” value [16] was “failed to have any effect”, the “neurological or morphological outcome” value [17] was “failed to attenuate” and the neurological status [18] was “significant improvement”. For the same molecule, the “growth of brain and systemic glutamate secreting tumors” value ([19]; in vitro) was “slow the growth”, the “in vitro proliferation of tumor cells” value ([19]; lung, rhabdomyosarcoma, medulloblastoma, thyroid adenocarcinoma) was “decrease in vitro proliferation” and the “levels at which in vitro proliferation was decreased” value ([19]; unobtainable at therapeutic human doses) was 100 μM/ml. The “decrease of tumor volume” value [20] was 25%, the “tumor expansion facilitated by glutamate secretion” value [20] was “blocked” and the “BDNF mRNA levels” value (BDNF mRNA) was “increased BDNF mRNA levels”. For the same molecule, the “NMDA stimulated activity of inner hair cell afferents” value [21] was “selectively inhibit”, the “treatment of APN” value [5] was “efficacy” and the “cognitive effects in alcoholic dementia” value [22] was “reversed cognitive effects”. For the same molecule, the “rate of cognitive decline” value [23] was “efficacy in decreasing the rate of cognitive decline”, the “efficacy as an anti-convulsant or in epilepsy” value [24] was “minimal efficacy” and the “eliminating symptoms of drug withdrawal and addiction” value [25] was “conflicting and usually negative”. For the same molecule, the “TTP (time-to-peak concentration)” value ([26]; after oral intake) was 6 to 8 h, the “decrease of CSF (cerebrospinal fluid) concentration” value ([26]; due to albumin binding) was 20-50% and the “CSF concentrations lower (CSF sampling)” value ([26]; human subjects) was 30-40%. The serum levels ([26]; humans, 20 mg per day) was 500 to 1000 nM, the “blood brain barrier penetration” value ([26]; in vivo) was “easily penetrates the blood brain barrier” and the “plasma clearance half-life (t1/2)” value ([26]; in vivo) was 60 to 100 h. For the same molecule, the protein binding ([26]; in vivo) was 42-45%, the “time to steady-state plasma levels” value ([26]; in vivo) was “approximately 21 days” and the “absorption from the gastrointestinal tract” value ([26]; oral) was “completely absorbed”. For the same molecule, the plasma levels ([26]; patients treated with 10-30 mg per day) was 400 to 1000 nM, the “free brain concentrations lower” value [27] was 20-30% and the “drug interaction with AchE (acetylcholinesterase inhibitors)” value ([28]; combined with AchE inhibitors) was “no adverse drug interaction”. For the same molecule, the adverse events ([28]; dose-related) was “nausea, dizziness, and restlessness”, the hepatic toxicity ([28]; human, in vivo) was “minimal hepatic toxicity” and the “patients with headache as adverse event” value ([28]; patients who do not suffer from migraine, mild, usually transitory, dose related) was “up to 10%”. For the same molecule, the “induction of HSP, neuronal vacuolization and necrosis” value [29] was “No induction of HSP (heat shock protein) or neuronal vacuolization and necrosis”, the “enhanced neuronal density drop-out in the striatum” value [30] was 26% and the “reduction in volume in the striatum” value [30] was 11.5%. For the same molecule, the “therapeutic concentration that produces efficacy in Parkinson's disease” value [31] was “less than 2 μM”, the placental penetration [32] was “good placental penetration” and the teratogenesis [32] was “minimal teratogenesis”. For the same molecule, the “toxicity to the fetus” value [32] was “non-toxic properties to the fetus”.
